Assay results: ChEMBL document CHEMBL3044560, “Microwave-assisted synthesis and antimicrobial activity of some imidazo[2,1-b][1,3,4]thiadiazole derivatives” (2012)
The source made the active and inactive calls. No cut-off for these calls is given here.

Assays:
Candida albicans [1] = assay: Antimicrobial activity against Candida albicans at 30 ug/ml after 72 hr by cup-plate method; format: functional; conditions: read-out: IZ
Staphylococcus aureus [2] = assay: Antimicrobial activity against Staphylococcus aureus at 10 ug/ml after 24 hr by cup-plate method; conditions: read-out: IZ
Klebsiella [3] = assay: Antimicrobial activity against Klebsiella at 10 ug/ml after 24 hr by cup-plate method; format: functional; conditions: read-out: IZ
Candida albicans [4] = assay: Antimicrobial activity against Candida albicans at 50 to 70 ug/ml after 72 hr by cup-plate method; format: functional, organism-based
Candida albicans [5] = assay: Antimicrobial activity against Candida albicans at 5 ug/ml after 72 hr by cup-plate method; format: functional; conditions: read-out: IZ
Staphylococcus aureus [6] = assay: Antimicrobial activity against Staphylococcus aureus at 75 ug/ml after 24 hr by cup-plate method; format: functional
Candida albicans [7] = assay: Antimicrobial activity against Candida albicans at 50 ug/ml after 72 hr by cup-plate method; format: functional; conditions: read-out: IZ
Klebsiella [8] = assay: Antimicrobial activity against Klebsiella at 50 ug/ml after 24 hr by cup-plate method; format: functional

## OC(Cn1cncn1)(Cn1cncn1)c1ccc(F)cc1F [FLUCONAZOLE]
Candida albicans [1]
  zone of inhibition at 30 µg/mL: 22 mm

## O=C(O)c1cn(C2CC2)c2cc(N3CCNCC3)c(F)cc2c1=O [CIPROFLOXACIN]
Staphylococcus aureus [2]
  zone of inhibition at 10 µg/mL: 28 mm
Klebsiella [3]
  zone of inhibition at 10 µg/mL: 28 mm

## O=[N+]([O-])c1ccc(Cc2nn3cc(-c4ccc(Br)cc4)nc3s2)cc1
Candida albicans [4]
  inhibition zone (IZ): inactive
Candida albicans [5]
  zone of inhibition at 5 µg/mL: 14 mm
Staphylococcus aureus [6]
  inhibition zone (IZ): inactive

## O=[N+]([O-])c1ccc(Cc2nn3cc(-c4ccc(F)cc4)nc3s2)cc1
Candida albicans [7]
  zone of inhibition at 50 µg/mL: 22 mm
Klebsiella [8]
  inhibition zone (IZ): inactive
Staphylococcus aureus [6]
  inhibition zone (IZ): inactive
